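Where inhibition never reached the appropriate level, the endpoint shown equals the highest concentration tested. Otherwise, values were interpolated linearly from a five-concentration, 48-hour dose response in 96-well plates. GI50 = concentration required for 50% inhibition of growth. At the TGI there is no net growth.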
What was measured:
Experiment in all cases: growth of human tumour cells (NCI), 48 h
786-0 renal = test system: 786-0 renal
A498 renal = test system: A498 renal
A549 NSCLC = test system: A549 NSCLC
ACHN renal = test system: ACHN renal
BT-549 breast = test system: BT-549 breast
CAKI-1 renal = test system: CAKI-1 renal
CCRF-CEM leukemia = test system: CCRF-CEM leukemia
COLO 205 colon = test system: COLO 205 colon
DU-145 prostate = test system: DU-145 prostate
EKVX NSCLC = test system: EKVX NSCLC
HCC-2998 colon = test system: HCC-2998 colon
HCT-116 colon = test system: HCT-116 colon
HCT-15 colon = test system: HCT-15 colon
HL-60(TB) leukemia = test system: HL-60(TB) leukemia
HOP-62 NSCLC = test system: HOP-62 NSCLC
HOP-92 NSCLC = test system: HOP-92 NSCLC
HS 578T breast = test system: HS 578T breast
HT29 colon = test system: HT29 colon
IGROV1 ovarian = test system: IGROV1 ovarian
K-562 leukemia = test system: K-562 leukemia
KM12 colon = test system: KM12 colon
LOX IMVI melanoma = test system: LOX IMVI melanoma
M14 melanoma = test system: M14 melanoma
MALME-3M melanoma = test system: MALME-3M melanoma
MCF7 breast = test system: MCF7 breast
MDA-MB-231 breast = test system: MDA-MB-231 breast
MDA-MB-435 = test system: MDA-MB-435
MOLT-4 leukemia = test system: MOLT-4 leukemia
NCI-H226 lung = test system: NCI-H226 lung
NCI-H23 lung = test system: NCI-H23 lung
NCI-H460 lung = test system: NCI-H460 lung
NCI-H522 lung = test system: NCI-H522 lung
NCI/ADR-RES ovarian = test system: NCI/ADR-RES ovarian
OVCAR-3 ovarian = test system: OVCAR-3 ovarian
OVCAR-4 ovarian = test system: OVCAR-4 ovarian
OVCAR-5 ovarian = test system: OVCAR-5 ovarian
OVCAR-8 ovarian = test system: OVCAR-8 ovarian
PC-3 prostate = test system: PC-3 prostate
RPMI-8226 leukemia = test system: RPMI-8226 leukemia
SF-268 CNS = test system: SF-268 CNS
SF-295 CNS = test system: SF-295 CNS
SF-539 CNS = test system: SF-539 CNS
SK-MEL-2 melanoma = test system: SK-MEL-2 melanoma
SK-MEL-28 melanoma = test system: SK-MEL-28 melanoma
SK-MEL-5 melanoma = test system: SK-MEL-5 melanoma
SK-OV-3 ovarian = test system: SK-OV-3 ovarian
SN12C renal = test system: SN12C renal
SNB-19 CNS = test system: SNB-19 CNS
SNB-75 CNS = test system: SNB-75 CNS
SR leukemia = test system: SR leukemia
SW-620 colon = test system: SW-620 colon
T-47D breast = test system: T-47D breast
TK-10 renal = test system: TK-10 renal
U251 CNS = test system: U251 CNS
UACC-257 melanoma = test system: UACC-257 melanoma
UACC-62 melanoma = test system: UACC-62 melanoma
UO-31 renal = test system: UO-31 renal

O=C(CCCCCCNC(=O)C(O)(O)C(F)(F)F)Nc1ccc(Br)cc1
GI50 (786-0 renal): 4.47 µM | TGI (786-0 renal): > 33 µM | GI50 (A498 renal): 1090 nM | TGI (A498 renal): 9.68 µM | GI50 (A549 NSCLC): 8.39 µM | TGI (A549 NSCLC): > 33 µM | GI50 (ACHN renal): 2650 nM | TGI (ACHN renal): 17.7 µM | GI50 (BT-549 breast): 6.42 µM | TGI (BT-549 breast): > 33 µM | GI50 (CAKI-1 renal): 7.02 µM | TGI (CAKI-1 renal): > 33 µM | GI50 (CCRF-CEM leukemia): 1900 nM | TGI (CCRF-CEM leukemia): > 33 µM | GI50 (COLO 205 colon): 5.02 µM | TGI (COLO 205 colon): 17.7 µM | GI50 (DU-145 prostate): 5.46 µM | TGI (DU-145 prostate): > 33 µM | GI50 (EKVX NSCLC): 5.49 µM | TGI (EKVX NSCLC): > 33 µM | GI50 (HCC-2998 colon): 5.35 µM | TGI (HCC-2998 colon): 13.2 µM | GI50 (HCT-116 colon): 1120 nM | TGI (HCT-116 colon): > 33 µM | GI50 (HCT-15 colon): 5.23 µM | TGI (HCT-15 colon): 14.1 µM | GI50 (HL-60(TB) leukemia): 2210 nM | TGI (HL-60(TB) leukemia): > 33 µM | GI50 (HOP-62 NSCLC): 4.29 µM | TGI (HOP-62 NSCLC): > 33 µM | GI50 (HOP-92 NSCLC): 554 nM | TGI (HOP-92 NSCLC): 3.25 µM | GI50 (HS 578T breast): 3.84 µM | TGI (HS 578T breast): 30.1 µM | GI50 (HT29 colon): 5.11 µM | TGI (HT29 colon): > 33 µM | GI50 (IGROV1 ovarian): 4.48 µM | TGI (IGROV1 ovarian): 14.1 µM | GI50 (K-562 leukemia): 1200 nM | TGI (K-562 leukemia): > 33 µM | GI50 (KM12 colon): 4.82 µM | TGI (KM12 colon): 24.3 µM | GI50 (LOX IMVI melanoma): 2900 nM | TGI (LOX IMVI melanoma): 7.5 µM | GI50 (M14 melanoma): 7.12 µM | TGI (M14 melanoma): > 33 µM | GI50 (MALME-3M melanoma): 1540 nM | TGI (MALME-3M melanoma): > 33 µM | GI50 (MCF7 breast): 7.77 µM | TGI (MCF7 breast): > 33 µM | GI50 (MDA-MB-231 breast): 2120 nM | TGI (MDA-MB-231 breast): 16.6 µM | GI50 (MDA-MB-435): 3.64 µM | TGI (MDA-MB-435): > 33 µM | GI50 (MOLT-4 leukemia): 1420 nM | TGI (MOLT-4 leukemia): > 33 µM | GI50 (NCI-H226 lung): 8.33 µM | TGI (NCI-H226 lung): > 33 µM | GI50 (NCI-H23 lung): 4.6 µM | TGI (NCI-H23 lung): 19.6 µM | GI50 (NCI-H460 lung): 2410 nM | TGI (NCI-H460 lung): > 33 µM | GI50 (NCI-H522 lung): 4.19 µM | TGI (NCI-H522 lung): 22.8 µM | GI50 (NCI/ADR-RES ovarian): 4.12 µM | TGI (NCI/ADR-RES ovarian): 18.6 µM | GI50 (OVCAR-3 ovarian): 2220 nM | TGI (OVCAR-3 ovarian): 7.5 µM | GI50 (OVCAR-4 ovarian): 13.4 µM | TGI (OVCAR-4 ovarian): > 33 µM | GI50 (OVCAR-5 ovarian): 1960 nM | TGI (OVCAR-5 ovarian): 12.5 µM | GI50 (OVCAR-8 ovarian): 2320 nM | TGI (OVCAR-8 ovarian): > 33 µM | GI50 (PC-3 prostate): 2860 nM | TGI (PC-3 prostate): > 33 µM | GI50 (RPMI-8226 leukemia): 1900 nM | TGI (RPMI-8226 leukemia): > 33 µM | GI50 (SF-268 CNS): 5.78 µM | TGI (SF-268 CNS): 21.8 µM | GI50 (SF-295 CNS): 2730 nM | TGI (SF-295 CNS): 8.17 µM | GI50 (SF-539 CNS): 5.87 µM | TGI (SF-539 CNS): > 33 µM | GI50 (SK-MEL-2 melanoma): 3.29 µM | TGI (SK-MEL-2 melanoma): 20.1 µM | GI50 (SK-MEL-28 melanoma): 2380 nM | TGI (SK-MEL-28 melanoma): 18.7 µM | GI50 (SK-MEL-5 melanoma): 4.14 µM | TGI (SK-MEL-5 melanoma): 8.46 µM | GI50 (SK-OV-3 ovarian): 1950 nM | TGI (SK-OV-3 ovarian): 17.3 µM | GI50 (SN12C renal): 5.01 µM | TGI (SN12C renal): 24.6 µM | GI50 (SNB-19 CNS): 5.58 µM | TGI (SNB-19 CNS): 18.1 µM | GI50 (SNB-75 CNS): 3 µM | TGI (SNB-75 CNS): > 33 µM | GI50 (SR leukemia): 1740 nM | TGI (SR leukemia): > 33 µM | GI50 (SW-620 colon): 1570 nM | TGI (SW-620 colon): 7.16 µM | GI50 (T-47D breast): 1690 nM | TGI (T-47D breast): 24.3 µM | GI50 (TK-10 renal): 1090 nM | TGI (TK-10 renal): > 33 µM | GI50 (U251 CNS): 3.64 µM | TGI (U251 CNS): 17.6 µM | GI50 (UACC-257 melanoma): 6.7 µM | TGI (UACC-257 melanoma): > 33 µM | GI50 (UACC-62 melanoma): 1590 nM | TGI (UACC-62 melanoma): 6.2 µM | GI50 (UO-31 renal): 1980 nM | TGI (UO-31 renal): 14.8 µM
